Measurements published in a melting point compilation (Tetko et al.; mined from patent text by program, amines drawn as free bases though some values may be those of a salt).

SMILES	melting point [°C]
NNC(=O)c1ccccc1OCC(F)(F)F	102 to 104
NC(=O)c1cc2c(OCCCN3CCN(C(c4ccccc4)c4ccccc4)CC3)cccc2[nH]1	222 to 223
CCOC(=O)CN(CP(=O)(ONC1CCCCC1)ONC1CCCCC1)C(=O)C(F)(F)F	118 to 123
CCOC(=O)[C@H](CCc1ccccc1)N[C@@H](C)C(=O)N1CC2(C[C@H]1C(=O)O)SCCS2	124 to 126
COc1ccc(C(=O)Nc2ccccc2)cc1NS(=O)(=O)c1cccc2cccnc12	187 to 188
Cc1[nH]c(=S)n(Nc2ccccc2)c1C	217 to 219
CCCOc1ccc(F)cc1C(=O)C=CN(C)C	43 to 46
O=C(O)COc1cccc(-c2ccc(Cl)c(C(=O)NCC34CC5CC(CC(C5)C3)C4)c2)c1	99 to 101
Cc1cccc(-c2n[nH]cc2-c2ccnc(-c3ccc(Cl)cc3)c2)n1	190
CC(C)(C)NC(=O)[C@@H]1CNNC1=O	175 to 178
CC(C)(C)OC(=O)C(=NO)C(=O)CCOCc1ccccc1	98 to 100
NC(=O)c1cnn(-c2ccc(Cl)cc2Cl)c1C(F)(F)F	191 to 193
Cn1c(=O)c2c(Oc3cccc(Cl)c3)cccc2n2cnc(-c3noc(C4CC4)n3)c12	201 to 203
O=C(O)[C@@H](CSCc1ccccc1)N1C(=O)C=CC1=O	86 to 87
CC(=O)OC1CCC2(C)C(CCC3=C4C(=O)CC(C(C)CCCN(C)C)C4(C)CCC32)C1 (stereo not given)	122 to 124
CN(CC(=O)[C@H](Cc1ccccc1)NC(=O)N1CCOCC1)C(=O)N1CCC[C@H]1C(=O)O	75 to 90
COC1(Cl)C=CC=CC1Oc1c(Cl)ncnc1Cl (stereo not given)	88 to 89
CN(C)CCNc1ccc2c3c(nn2CCNC(=O)OC(C)(C)C)-c2cnccc2C(=O)c13	225 to 227
N#Cc1c(Sc2ccccc2)cccc1[N+](=O)[O-]	106 to 107
CCOC(=O)c1cn2c(cc(Br)c3ccccc32)n1	205 to 207
CCn1c(C)c(C(=O)c2nccnc2C(=O)O)c2ccccc21	212 to 213
CCN(CC)C(=O)NC1CC2c3cccc4[nH]c(CC#CO)c(c34)CC2N(C)C1 (stereo not given)	151 to 154
COc1cc(C=Cc2ccccc2)ccc1O	132 to 134
O=C(O)CC1CCN(Cc2ccccc2)C1c1c(Cl)cccc1Cl (stereo not given)	186 to 188

SMILES	melting point [°C]
COC(=O)c1cc(Cl)c(C)c(N)c1Cl	53 to 55
CCOC(=O)CC[C@H](NC(=O)c1ccc(CCc2cnc3nc(NC(C)=O)nc(O)c3c2)cc1)C(=O)OCC	> 200
Nc1c(Cl)cc(C(=CC(=O)N2CCOCC2)c2ccc(Cl)cc2)cc1Cl	140 to 144
Fc1ccccc1-c1ccc2nnn(Cc3ccc4ncccc4c3)c2n1	164 to 166
CC1(C)Cc2sc3c(c2C1)CCC3=O	60 to 62
c1ccc(C(c2ccc3cccnc3c2)n2ccnc2)cc1 (stereo not given)	111
CCOc1cccc(-c2nn(C(C)c3oc4ccccc4c(=O)c3-c3cccc(F)c3)c3ncnc(N)c23)c1 (stereo not given)	162 to 165
COc1ccccc1Oc1c(NS(=O)(=O)c2ccc(C(C)(C)C)cc2)nc(-c2ncccn2)nc1OCCOc1ncc(-c2ccccn2)cn1	149 to 157
CS(=O)(=O)Cc1cccc(-c2nc(=O)c3ccccc3s2)n1	230 to 232
CC(C)Cc1nn(C)c(=O)c2cc(C(O)c3cccc4ccccc34)oc12 (stereo not given)	110 to 112
OC(CCCCCCCCCOCc1ccccc1)c1ccc(OCc2ccccc2)c(OCc2ccccc2)c1 (stereo not given)	45 to 47
O=C1COc2ccc(C3=CN=C(c4ccccc4)SC3c3ccccc3)cc2N1 (stereo not given)	231 to 233
Brc1ccc2c(c1)/C(=C/CCN1CCCC1)c1cc(Br)ccc1OC2	102 to 103
O=C(Nc1ccc(C(=O)Oc2ccccc2)c(Cl)c1)c1ccccc1	126 to 128
COC(=O)c1cc(=O)n(C)c2ccc(C(=O)c3ccc(Cl)cc3)cc12	182
COc1ccc(N)c(C(=O)O)c1OC	71 to 72
CC1=CC(COC(c2ccccc2)(c2ccccc2)c2ccccc2)O[C@@H]1c1coc(C#N)c1N (stereo not given in full)	68
CCCCOc1c(CO)n(CC(C)(C)C)c(=O)c2ccc(F)cc12	143 to 144
Cn1ccnc1SCc1nc(-c2ccc3c(c2)OCO3)c2cc3c(cc2n1)OCO3	155 to 160
Nc1cccc(-c2ccc(CCN3CCN(CCc4ccccc4)CC3)c3ccccc23)n1	80 to 105
COc1cc(CCc2c(/C=C/[N+](=O)[O-])ccc(OC)c2OC)cc(OC)c1	95 to 96
CCc1c(CC(=O)NCCCCCCN)ccc(OC)c1OC	136 to 138
CCOC(=O)c1sccc1S(=O)(=O)NC(=O)Nc1nc(C)nc(OC)n1	166
Cc1ccc(-c2ccccn2)cc1S(N)(=O)=O	173 to 176

SMILES	melting point [°C]
Fc1ccc(N=c2sc3ccc(Cl)cc3s2)cc1	101 to 102
COc1ccc(C(=CN2CCNC2=O)c2ccccc2)cc1OC	155
CCOC(=O)c1cn(C2CC2)c2nc(N3CCC(NC)C3)c(F)cc2c1=O (stereo not given)	164 to 166
CC1CN(c2nc3ccccc3s2)N=C1N (stereo not given)	207 to 209
CCCCCCCCc1ccc(C#Cc2c3ccccc3c(C#Cc3ccc(CCCCCCCC)cc3)c3ccccc23)cc1	131 to 133
CCOC(=O)c1c(N)n(C)c2ccccc12	132 to 134
CCC(=O)OCc1c(C)cc([N+](=O)[O-])c(NC(CC)CC)c1[N+](=O)[O-]	27 to 29
CC(=O)/C=C(\C)c1ccc(-c2ccccc2F)cc1	92
CC(C)(CCCCCC(=O)CCCCCC(C)(C)C(=O)O)C(=O)O	74.5 to 76
CC(=O)N(C)c1cccnc1S(N)(=O)=O	181 to 185
CCCn1nc(C(C)C)c(C(=O)OCOC(=O)C(C)(C)C)c1Cc1ccc(-c2ccccc2-c2nnn[nH]2)cc1	62 to 67
Cc1cc(Oc2c(Cl)cc(C(F)(F)F)cc2Cl)nn1C(=O)NC1CCCC1	90 to 92
Cc1cc(C(=O)Nc2cc(F)ccc2O)c(Br)s1	210 to 212
O=C(NCCCC(c1cc(F)ccc1F)S(=O)(=O)c1ccc(Cl)cc1)OCCI (stereo not given)	100 to 101
N=C(N)NNC(=O)c1cccc(-c2csc(N=C(N)N)n2)n1	194 to 196
CS(=O)(=O)NCCS(=O)(=O)N1CCN(S(=O)(=O)c2ccc(-c3ccc(Cl)cc3)s2)[C@@H](C(=O)NO)C1	118 to 122
CC(C)(C)c1cc(C(=O)c2ccccn2)cc2c1OCC2(C)C	95 to 97
CC(C)CN(C(=O)N(CCCl)N=O)C1(O)C(OC2CCCCC2)OC(CO)C1O (stereo not given)	70 to 72
Cc1nn(-c2ccc(Cl)nn2)c(C)c1[N+](=O)[O-]	164 to 167
OCCCCCCCCOc1ccc(-c2ccccc2)cc1	101 to 103
CNC(=O)NCCN1CCC(Nc2nc3ccccc3n2Cc2ccc(F)cc2)CC1	231
C[Si](C)(Cc1ccc(N(c2ccccc2)c2ccccc2)cc1)Cc1ccc(N(c2ccccc2)c2ccccc2)cc1	125 to 127
